Experimental findings from ChEMBL document CHEMBL1152216, “Pyrazino[1,2-b]isoquinolines: synthesis and study of their cytostatic and cytotoxic properties” (2008) are described below.

Test [1] deals with MDA-MB-231. The test can be described thus: Growth inhibition of human MDA-MB-231 cells after 48 hrs by MTT assay. Conditions: MDA-MB-231, 48 h. The test is classed as functional.
The test system of test [2] is HT-29. Briefly: Growth inhibition of human HT-29 cells after 48 hrs by MTT assay. The test is classed as functional. Conditions: HT-29, 48 h. A general note: Tetrazolium dyes change colour on reduction, which living cells bring about.
The subject of test [3] is A549. Briefly: Growth inhibition of human A549 cells after 48 hrs by MTT assay. The test is classed as functional. Conditions: A549, 48 h.
Test [4] relates to A549. The test can be described thus: Cytotoxicity against human A549 cells after 48 hrs by MTT assay. The test is classed as functional. Conditions: A549, 48 h.
The test system of test [5] is HT-29. Briefly: Cytotoxicity against human HT-29 cells after 48 hrs by MTT assay. The test is classed as functional. The note with it: HT-29, 48 h, read-out: LC50 (the source's name).
The test system of test [6] is A549. Briefly: Induction of apoptosis in human A549 cells at 50 uM after 48 hrs by propidium iodide staining. The test is classed as functional, cell-based.
The subject of test [7] is A549. Briefly: Cell cycle arrest in human A549 cells assessed as decrease in accumulation at G2/M phase at […] after 48 hrs by flow cytometry. The test is classed as functional, cell-based. (A flow cytometer gives signals particle by particle.)
For test [8], the system named is A549. The test can be described thus: Cell cycle arrest in human A549 cells assessed as increase in accumulation at G1 phase at […] after 48 hrs by flow cytometry. The test is classed as functional, cell-based.
Test [9] concerns A549. Briefly: Induction of DNA cleavage in human A549 cells assessed as H2AX phosphorylation at 50 uM after 24 hrs by Western blot. The test is classed as functional, cell-based. (Immunoblotting shows a protein as a band on a membrane.)
Test [10] has as its system A549. The test can be described thus: Induction of DNA cleavage in human A549 cells assessed as CHK2 Ser19 phosphorylation at 50 uM after 24 hrs by Western blot. The test is classed as functional, cell-based.
The test system of test [11] is A549. Briefly: Induction of DNA cleavage in human A549 cells assessed as p53 Ser15 phosphorylation at 50 uM after 24 hrs by Western blot. The test is classed as functional, cell-based.
The subject of test [12] is A549. The test can be described thus: Induction of apoptosis in human A549 cells assessed as JNK activation at 50 uM after 24 hrs by Western blot. The test is classed as functional, cell-based.
The test system of test [13] is A549. The test can be described thus: Induction of apoptosis in human A549 cells assessed as p38 activation at 50 uM after 24 hrs by Western blot. The test is classed as functional, cell-based.
The test system of test [14] is A549. The test can be described thus: Induction of apoptosis in human A549 cells assessed as AKT signaling pathway activation at 50 uM after 24 hrs by Western blot. The test is classed as functional, cell-based.
Test [15] has as its system A549. Briefly: Cell cycle arrest in human A549 cells assessed as decrease in accumulation at G1 phase at […] after 48 hrs by flow cytometry. The test is classed as functional, cell-based.
Test [16] concerns MDA-MB-231. The test can be described thus: Cytotoxicity against human MDA-MB-231 cells after 48 hrs by MTT assay. The test is classed as functional. Conditions: MDA-MB-231, 48 h, read-out: LC50 (the source's name).

The source made the active and inactive calls. The rule behind the calls is not given here.

As a reminder, the GI50 is the concentration giving 50% growth inhibition. A high value points to lower sensitivity of the cells. For the compound `COc1c(C)c(OC)c(OC)c2c1C=C1CN(C)CC(=O)N1[C@H]2CN1Cc2ccccc2C1=O`, the GI50 in the test with MDA-MB-231 [1] stood at 11.9 µM; with HT-29 [2], 3.67 µM.

Usually TGI stands for the concentration at which net growth stops. In general, LC50 refers to the concentration lethal to half of the exposed cells or organisms. In the test with A549 [3], `COc1c(C)c(OC)c(OC)c2c1C[C@H]1CNCC(=O)N1[C@H]2COCc1ccccc1` (relative stereo) yielded a GI50 of 13.4 µM and a TGI greater than 23.4 µM. The compound further showed an LC50 with A549 [4] greater than 23.4 µM.

As for `COc1c(C)c(OC)c(OC)c2c1C[C@H]1CN(C)CC(=O)N1[C@H]2COCc1ccccc1` (relative stereo), in the test with A549 [3], it took 12.7 µM to inhibit growth by half (GI50) and the TGI was greater than 22.7 µM. This compound displayed an LC50 in the test on A549 [4] greater than 22.7 µM.

In the case of `COc1c(C)c(OC)c(OC)c2c1C[C@@H]1CN(C(=O)OC(C)C)CC(=O)N1[C@H]2COCc1ccccc1` (relative stereo), the GI50 in the test on A549 [3] turned out to be 8.19 µM; in the test with HT-29 [2], 10.5 µM. This compound yielded a TGI in the test on A549 [3] of 16.8 µM.

For `COc1c(C)c(OC)c(OC)c2c1C[C@H]1CN(C(=O)OC(C)C)CC(=O)N1[C@H]2COCc1ccccc1` (relative stereo), the figures for the GI50 in the test with MDA-MB-231 [1], in the test on A549 [3] and in the test on HT-29 [2] were 1.09 µM, 0.449 µM and 0.195 µM, respectively. Further, the TGI in the test with A549 [3] came out at 1.89 µM; in the test on HT-29 [2] it was 0.273 µM. The CC50 with HT-29 [5] was found to be 0.527 µM.

Take `COc1c(C)c(OC)c(OC)c2c1C[C@H]1CN(C(=O)OC(C)C)CC(=O)N1[C@H]2COC(=O)/C=C/c1ccccc1` (relative stereo): the result in the test on A549 [6], in the test with A549 [7] and with A549 [8] was Active. The values for the concentration for 50% growth inhibition (GI50) in the test with A549 [3] and in the test with HT-29 [2] were 9.05 µM and 9.23 µM, respectively. In addition, the outcome in the test with A549 [9], with A549 [10], in the test with A549 [11], with A549 [12], in the test on A549 [13] and in the test on A549 [14] was inactive.

`COc1c(C)c(OC)c(OC)c2c1C[C@H]1[C@@H](O)N(C(=O)OC(C)C)CC(=O)N1[C@H]2COCc1ccccc1` (relative stereo): the result in the test with A549 [6], in the test with A549 [15] and in the test on A549 [7] was Active. Further, the GI50 in the test with MDA-MB-231 [1] amounted to 9.27 µM; in the test with A549 [3] it was 5.68 µM; in the test with HT-29 [2], 8.32 µM. The TGI in the test with MDA-MB-231 [1] came out at 15.3 µM; in the test on A549 [3] it was 11.7 µM; in the test with HT-29 [2], 9.84 µM. In the test on A549 [4], this compound returned an LC50 of 17.4 µM. In addition, the result with A549 [9], with A549 [10], with A549 [11], with A549 [12], in the test with A549 [13] and in the test on A549 [14] was inactive.

On to `COc1c(C)c(OC)c(OC)c2c1C[C@H]1[C@H](C#N)N3C([C@@H]4O[C@H]5c6ccccc6[C@H](C#N)N5C[C@H]3c3c(OC)c(OC)c(C)c(OC)c34)[C@@H]2N1C` (relative stereo), for which the GI50 in the test with MDA-MB-231 [1] is 11.4 µM; in the test with A549 [3], 11.4 µM; in the test on HT-29 [2] it was 7.35 µM. Besides, the TGI turned out to be 12 µM in the test on MDA-MB-231 [1], 12 µM in the test on A549 [3] and 8.22 µM in the test with HT-29 [2]. Moreover, the CC50 with MDA-MB-231 [16] is 12.8 µM; with HT-29 [5], 10.2 µM. In the test with A549 [4], this compound registered an LC50 of 12.7 µM. Moreover, the result with A549 [9], in the test on A549 [10], with A549 [11], in the test with A549 [12], in the test with A549 [13] and in the test with A549 [14] was inactive.

Turning to `COc1c(C)c(OC)c2c(c1OC)[C@@H]1CN3C(=O)c4ccccc4[C@@H]3O[C@H]2C2=CN(C(=O)OC(C)C)CC(=O)N21` (relative stereo), the GI50 was determined as 2.91 µM with A549 [3] and 10.4 µM in the test with HT-29 [2].

As to `COc1c(C)c(OC)c(OC)c2c1C[C@H]1[C@@H](O)N(C(=O)OC(C)(C)C)CC(=O)N1[C@H]2COCc1ccccc1` (relative stereo), the GI50 in the test on MDA-MB-231 [1] stood at 12 µM; with A549 [3], 4.79 µM; with HT-29 [2], 14.4 µM. For the same compound, the TGI is greater than 18.4 µM with MDA-MB-231 [1], 17.5 µM in the test on A549 [3] and greater than 18.4 µM in the test with HT-29 [2]. For the same compound, the CC50 in the test on MDA-MB-231 [16] and in the test on HT-29 [5] was greater than 18.4 µM in each case. The compound further yielded an LC50 with A549 [4] greater than 18.4 µM.

As to `COc1cc2c(cc1O)CCN[C@]21CS[C@@H]2c3c(OC(C)=O)c(C)c4c(c3[C@H](COC1=O)N1[C@@H]2[C@H]2c3c(cc(C)c(OC)c3O)C[C@@H]([C@@H]1O)N2C)OCO4` [TRABECTEDIN], the GI50 worked out at 0.0551 µM in the test on MDA-MB-231 [1], 0.125 µM with A549 [3] and 0.0517 µM in the test with HT-29 [2]. Besides, the values for the TGI in the test on MDA-MB-231 [1], in the test with A549 [3] and in the test with HT-29 [2] were 0.0578 µM, 0.131 µM and 0.063 µM, respectively.
